Results published in PubChem BioAssay AID2060901 (Molecular Pharmacology Branch, DTP, NCI, 2025).

Tested on: 422866-222-R5-J1-PDC complex spheroids viability
Experiment: Anticancer human tumor 422866-222-R5-J1-PDC patient-derived pancreatic adenocarcinoma cell line growth inhibition [RAS]
Conditions: for IC50: curve of first compound; for viability, T/C: stronger effect = lower value; active means viability on the fitted dose curve at most 10% of control; inactive means the rest
Text: RAS pathway inhibitors in Combinations in Complex Spheroids
A high-throughput screen of multi-cell type tumor spheroids was designed to identify active combinations of RAS pathway inhibitors and targeted small molecules. Complex spheroids include a stromal component modeled by human endothelial cells (HUVEC) and fibroblasts modeled by human mesenchymal stem cells (MSCs). The concentration ranges selected for each drug and investigational agent were based upon clinically achievable concentrations if the clinical Cmax of the agent was known.
Compounds. The drugs and investigational agents: abemaciclib (NSC768073), cobimetinib (NSC768068), divarasib (GDC6063, NSC841802), docetaxel (NSC628503), GDC-1971 (RLY-1971, NSC841576), gemcitabine (NSC613327), inavolisib (NSC800729), ipatasertib (NSC767898), KB-0742 (NSC834161), MRTX-1133 (NSC836407), osimertinib (NSC779217), RMC-4630 (NSC839698), RMC-6236 (NSC851965), RMC-6291 (NSC852671), Ro-3306 (NSC812927), sapanisertib (NSC764658), SN-38 (NSC673596), staurosporine (NSC755774), SY5609 (NSC837396), and tovorafenib (DAY101, NSC766906), were obtained from the National Cancer Institute (NCI) Developmental Therapeutics Program Chemical Repository. The FDA-approved anticancer drug set is available from the NCI Developmental Therapeutics Program. […] The stock solutions were prepared in dimethyl sulfoxide (DMSO, Sigma-Aldrich, St. Louis, MO, cat. D2650) at 800-fold the tested concentration and stored at -70 degrees C prior to their use. All drugs and investigational agents were tested over a range starting from a high concentration at or near the clinical Cmax and decreasing in half-log increments. If the clinical Cmax for an agent had not been determined, the highest concentration tested was 10 microM.
Cell Culture. All cells were maintained in an incubator at 37 degrees C and 5% CO2 with 95% humidity. The PDC lines were cultured according to standard operating procedures established by the NCI PDMR. All PDCs were thawed and cultured in Matrigel-coated flasks prepared with a working solution of 1X Ham's F-12 nutrient mix, without supplementation (Invitrogen, Waltham, MA, cat. 11765054), 100 U/mL penicillin-streptomycin (Invitrogen, cat. 15140122), and 2.5% Matrigel (Corning Inc., Corning, NY, cat. 354248) for the first three passages. The 362531-283-R-J2-PDC and 782815-120-R-J1-PDC lines were cultured in 6C/Colon 1B media, which includes advanced DMEM/F-12 (Thermo Fisher Scientific, cat. 12634028), 10 mM HEPES (Thermo Fisher Scientific, cat. 15630080), 1X GlutaMAX supplement (Thermo Fisher Scientific, cat. 35050061), 0.1 mg/mL primocin (InvivoGen, San Diego, CA, cat. ant-pm-2), 10% defined fetal bovine serum, heat inactivated (HyClone Laboratories Inc., Logan, UT, cat. SH30070.03HI), 50% L-WRN conditioned media (ATCC, cat. CRL-3276), 1.25 mM N-Acetyl-L-cysteine (Sigma-Aldrich, cat. A9165), 10 mM nicotinamide (Sigma-Aldrich, cat. N0636), 1X B-27 supplement (Thermo Fisher Scientific, cat. 17504044), 1X N-2 supplement (Thermo Fisher Scientific, cat. 17502048), 50 ng/mL human EGF (Thermo Fisher Scientific, cat. PHG0311), and 10 microM Y-27632 dihydrochloride (Tocris Bioscience, cat. 1254). The K12877-001-R-J1-PDC line was cultured in 6I media, which includes all 6C/Colon 1B media plus 10 ng/mL human FGF-10 (PeproTech, cat. 100-26), 1 ng/mL human FGF-2 (PeproTech, cat. 100-18B), 1 µM prostaglandin E2 (Tocris Bioscience, cat. 2296), […] hydrocortisone (Sigma-Aldrich, cat. H4001), and […] bovine insulin (Sigma-Aldrich, cat. I6634). The K86415-001-R-J1-PDC line was cultured in 6D media, which includes all 6C/Colon 1B media components minus the L-WRN conditioned media. The 485176-168-R4-J1-PDC was cultured in PANC media, which includes all 6C/Colon 1B media plus 100 ng/mL human FGF-10 (PeproTech, cat. 100-26), 500 nM SB-431542 (Selleckchem, cat. S1067), and 10 nM gastrin (Tocris Bioscience, cat. 3006). […]

[1] = second compound 0.0316 µM, first compound 0.0316 µM
[2] = second compound 0.0316 µM, first compound 0.1 µM
[3] = second compound 0.0316 µM, first compound 0.316 µM
[4] = second compound 0.0316 µM, first compound 1 µM
[5] = second compound 0.1 µM, first compound 0.0316 µM
[6] = second compound 0.1 µM, first compound 0.1 µM
[7] = second compound 0.1 µM, first compound 0.316 µM
[8] = second compound 0.1 µM, first compound 1 µM
[9] = second compound 0.316 µM, first compound 0.0316 µM
[10] = second compound 0.316 µM, first compound 0.1 µM
[11] = second compound 0.316 µM, first compound 0.316 µM
[12] = second compound 0.316 µM, first compound 1 µM
[13] = second compound 1 µM, first compound 0.0316 µM
[14] = second compound 1 µM, first compound 0.1 µM
[15] = second compound 1 µM, first compound 0.316 µM
[16] = second compound 1 µM, first compound 1 µM
[17] = second compound 3.16 µM, first compound 0.0316 µM
[18] = second compound 3.16 µM, first compound 0.1 µM
[19] = second compound 3.16 µM, first compound 0.316 µM
[20] = second compound 3.16 µM, first compound 1 µM
[21] = second compound 10 µM, first compound 0.0316 µM
[22] = second compound 10 µM, first compound 0.1 µM
[23] = second compound 10 µM, first compound 0.316 µM
[24] = second compound 10 µM, first compound 1 µM

CC(=O)OC12COC1CC(O)C1(C)C(=O)C(O)C3=C(C)C(OC(=O)C(O)C(NC(=O)OC(C)(C)C)c4ccccc4)CC(O)(C(OC(=O)c4ccccc4)C21)C3(C)C (centres undefined) + C#Cc1c(F)ccc2cc(O)cc(-c3ncc4c(N5CC6CCC(C5)N6)nc(OCC56CCCN5CC(F)C6)nc4c3F)c12
31.6 nM: IC50 (second compound 0.316 µM)
> 10000 nM: IC50 (second compound 0.0316 µM) | IC50 (second compound 0.1 µM)
< 31.6 nM: IC50 (second compound 1 µM) | IC50 (second compound 3.16 µM) | IC50 (second compound 10 µM)
inactive: viability, T/C [1] 55.1% | viability, T/C [2] 74.1% | viability, T/C [3] 77% | viability, T/C [4] 83.1% | viability, T/C (second compound 0.0316 µM, first compound 3.16 µM) 76.5% | viability, T/C (second compound 0.0316 µM, first compound 10 µM) 69.7% | viability, T/C [5] 70.7% | viability, T/C [6] 61.3% | viability, T/C [7] 56.5% | viability, T/C [8] 65.5% | viability, T/C (second compound 0.1 µM, first compound 3.16 µM) 64.1% | viability, T/C (second compound 0.1 µM, first compound 10 µM) 61.7% | viability, T/C [9] 55.7% | viability, T/C [10] 48.2% | viability, T/C [11] 46.6% | viability, T/C [12] 56.8% | viability, T/C (second compound 0.316 µM, first compound 3.16 µM) 67.4% | viability, T/C (second compound 0.316 µM, first compound 10 µM) 55.1% | viability, T/C [13] 34% | viability, T/C [14] 33.1% | viability, T/C [15] 37.5% | viability, T/C [16] 36.5% | viability, T/C (second compound 1 µM, first compound 3.16 µM) 41% | viability, T/C (second compound 1 µM, first compound 10 µM) 35.4% | viability, T/C [17] 21.2% | viability, T/C [18] 27.4% | viability, T/C [19] 29.6% | viability, T/C [20] 29.6% | viability, T/C (second compound 3.16 µM, first compound 3.16 µM) 32% | viability, T/C (second compound 3.16 µM, first compound 10 µM) 29.5% | viability, T/C [21] 23.1% | viability, T/C [22] 22.2% | viability, T/C [23] 22.2% | viability, T/C [24] 20.9% | viability, T/C (second compound 10 µM, first compound 3.16 µM) 24.1% | viability, T/C (second compound 10 µM, first compound 10 µM) 22.9%

Nc1ccn(C2OC(CO)C(O)C2(F)F)c(=O)n1 (centres undefined) + C#Cc1c(F)ccc2cc(O)cc(-c3ncc4c(N5CC6CCC(C5)N6)nc(OCC56CCCN5CC(F)C6)nc4c3F)c12
29.2 nM: IC50 (second compound 0.1 µM)
inactive: viability, T/C (second compound 0.0316 µM, first compound 0.00316 µM) 90.8% | viability, T/C (second compound 0.0316 µM, first compound 0.01 µM) 84.9% | viability, T/C [1] 65.7% | viability, T/C [2] 51.1% | viability, T/C [3] 42.1% | viability, T/C [4] 34.1% | viability, T/C (second compound 0.1 µM, first compound 0.00316 µM) 108% | viability, T/C (second compound 0.1 µM, first compound 0.01 µM) 65.6% | viability, T/C [5] 52.4% | viability, T/C [6] 37.6% | viability, T/C [7] 39.6% | viability, T/C [8] 38.5% | viability, T/C (second compound 0.316 µM, first compound 0.00316 µM) 63.9% | viability, T/C (second compound 0.316 µM, first compound 0.01 µM) 49.8% | viability, T/C [9] 48.8% | viability, T/C [10] 45.6% | viability, T/C [11] 38.1% | viability, T/C [12] 41.9% | viability, T/C (second compound 1 µM, first compound 0.00316 µM) 41.2% | viability, T/C (second compound 1 µM, first compound 0.01 µM) 41.3% | viability, T/C [13] 32.4% | viability, T/C [14] 35.9% | viability, T/C [15] 33.3% | viability, T/C [16] 25.5% | viability, T/C (second compound 3.16 µM, first compound 0.00316 µM) 25.8% | viability, T/C (second compound 3.16 µM, first compound 0.01 µM) 29.7% | viability, T/C [17] 24.5% | viability, T/C [18] 27.7% | viability, T/C [19] 23.4% | viability, T/C [20] 23% | viability, T/C (second compound 10 µM, first compound 0.00316 µM) 24.8% | viability, T/C (second compound 10 µM, first compound 0.01 µM) 26.2% | viability, T/C [21] 23.3% | viability, T/C [22] 19.8% | viability, T/C [23] 21.6% | viability, T/C [24] 17.8%
113 nM: IC50 (second compound 0.0316 µM)
< 3.16 nM: IC50 (second compound 1 µM) | IC50 (second compound 3.16 µM) | IC50 (second compound 10 µM)
15.9 nM: IC50 (second compound 0.316 µM)
